The source of these data is patent publication US6906097B2, “8-azaprostaglandin analogs as agents for lowering intraocular pressure” (Allergan, Inc., priority 2002, dated 2005).

Experiment [1] deals with T1, hEP4 (Homo sapiens, UniProt P35408).
T1 construct: expressed in transfected cells
Nature of the experiment: Radioligand binding, hEP4. The following applies: [3H]PGE2 competition. The protocol:
(§1) Human Recombinant EP1, EP2, EP3, EP4, FP, TP, IP and DP Receptors: Stable Transfectants
(§2) Plasmids encoding the human EP1, EP2, EP3, EP4, FP, TP, IP and DP receptors were prepared by cloning the respective coding sequences into the eukaryotic expression vector pCEP4 (Invitrogen). The pCEP4 vector contains an Epstein Barr virus (EBV) origin of replication, which permits episomal replication in primate cell lines expressing EBV nuclear antigen (EBNA-1). It also contains a hygromycin resistance gene that is used for eukaryotic selection. […] HEK-293 cells were grown in DMEM with 10% fetal bovine serum (FBS), 250 μg ml^−1 G418 (Life Technologies) and 200 μg ml^−1 gentamicin or penicillin/streptomycin.
(§3) For transfection, the cells were grown to 50-60% confluency on 10 cm plates. The plasmid pCEP4 incorporating cDNA inserts for the respective human prostanoid receptor (20 μg) was added to 500 μl of 250 mM CaCl2. […] After 30 min, 9 ml DMEM were added to the mixture. The DNA/DMEM/calcium phosphate mixture was then added to the cells, which had been previously rinsed with 10 ml PBS. The cells were then incubated for 5 hr at 37° C. in humidified 95% air/5% CO2. The calcium phosphate solution was then removed and the cells were treated with 10% glycerol in DMEM for 2 min. The glycerol solution was then replaced by DMEM with 10% FBS. The cells were incubated overnight and the medium was replaced by DMEM/10% FBS containing 250 μg ml^−1 G418 and penicillin/streptomycin. The following day hygromycin B was added to a final concentration of 200 μg ml^−1.
(§4) Ten days after transfection, hygromycin B resistant clones were individually selected and transferred to a separate well on a 24 well plate. At confluence each clone was transferred to one well of a 6 well plate, and then expanded in a 10 cm dish. Cells were maintained under continuous hygromycin selection until use.
Radioligand binding studies on plasma membrane fractions prepared for cells stably transfected with the cat or human receptor were performed as follows. Cells washed with TME buffer were scraped from the bottom of the flasks and homogenized for 30 sec using a Brinkman PT 10/35 polytron. TME buffer was added as necessary to achieve a 40 ml volume in the centrifuge tubes. TME is comprised of 50 mM TRIS base, 10 mM MgCl2, 1 mM EDTA; pH 7.4 is achieved by adding 1 N HCl. The cell homogenate was centrifuged at 19,000 rpm for 20-25 min at 4° C. using a Beckman Ti-60 or Ti-70 rotor. The pellet was then resuspended in TME buffer to provide a final protein concentration of 1 mg/ml, as determined by Bio-Rad assay. Radioligand binding assays were performed in a 100 μl or 200 μl volume.
The binding of [^3H](N) PGE2 (specific activity 165 Ci/mmol) was determined in duplicate and in at least 3 separate experiments. Incubations were for 60 min at 25° C. and were terminated by the addition of 4 ml of ice-cold 50 mM TRIS-HCl followed by rapid filtration through Whatman GF/B filters and three additional 4 ml washes in a cell harvester (Brandel). Competition studies were performed using a final concentration of 2.5 or 5 nM [^3H](N) PGE2 and non-specific binding was determined with 10^−5 M unlabelled PGE2.

The target in experiment [2] is T1, hEP4. Nature of the experiment: Functional data, human recombinant EP4 receptor stable transfectants. It counts as cell-based. The procedure:
as §1, §2, §3, §4

The next experiment addresses T2, hTP (Homo sapiens, UniProt P21731).
T2 construct: expressed in transfected cells
T2 sequence (P21731 1-343): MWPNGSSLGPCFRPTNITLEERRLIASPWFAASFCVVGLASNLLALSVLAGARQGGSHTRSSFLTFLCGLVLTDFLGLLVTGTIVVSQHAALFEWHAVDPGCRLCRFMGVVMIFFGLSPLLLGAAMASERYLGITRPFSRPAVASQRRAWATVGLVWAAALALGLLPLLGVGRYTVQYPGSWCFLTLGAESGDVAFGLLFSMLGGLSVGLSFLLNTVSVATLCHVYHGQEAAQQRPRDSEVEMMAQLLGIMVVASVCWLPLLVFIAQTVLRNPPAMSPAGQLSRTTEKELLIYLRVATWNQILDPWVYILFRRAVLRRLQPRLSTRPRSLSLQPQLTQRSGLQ
Put plainly: Functional data, human recombinant TP receptor stable transfectants. It counts as cell-based. The protocol:
as §1
(§5) Plasmids encoding the human EP1, EP2, EP3, EP4, FP, TP, IP and DP receptors were prepared by cloning the respective coding sequences into the eukaryotic expression vector pCEP4 (Invitrogen). The pCEP4 vector contains an Epstein Barr virus (EBV) origin of replication, which permits episomal replication in primate cell lines expressing EBV nuclear antigen (EBNA-1). It also contains a hygromycin resistance gene that is used for eukaryotic selection. The cells employed for stable transfection were human embryonic kidney cells (HEK-293) that were transfected with and express the EBNA-1 protein. These HEK-293-EBNA cells (Invitrogen) were grown in medium containing Geneticin (G418) to maintain expression of the EBNA-1 protein. HEK-293 cells were grown in DMEM with 10% fetal bovine serum (FBS), 250 μg ml^−1 G418 (Life Technologies) and 200 μg ml^−1 gentamicin or penicillin/streptomycin.
(§6) For transfection, the cells were grown to 50-60% confluency on 10 cm plates. The plasmid pCEP4 incorporating cDNA inserts for the respective human prostanoid receptor (20 μg) was added to 500 μl of 250 mM CaCl2. HEPES buffered saline×2 (2×HBS, 280 mM NaCl, 20 mM HEPES acid, 1.5 mM Na2 HPO4, pH 7.05-7.12) was then added dropwise to a total of 500 μl, with continuous vortexing at room temperature. After 30 min, 9 ml DMEM were added to the mixture. The DNA/DMEM/calcium phosphate mixture was then added to the cells, which had been previously rinsed with 10 ml PBS. The cells were then incubated for 5 hr at 37° C. in humidified 95% air/5% CO2. The calcium phosphate solution was then removed and the cells were treated with 10% glycerol in DMEM for 2 min. The glycerol solution was then replaced by DMEM with 10% FBS. The cells were incubated overnight and the medium was replaced by DMEM/10% FBS containing 250 μg ml^−1 G418 and penicillin/streptomycin. The following day hygromycin B was added to a final concentration of 200 μg ml^−1.
as §4

The target in another experiment is T3, hEP3A (Homo sapiens, UniProt P43115).
T3 construct: expressed in transfected cells
T3 sequence (P43115 1-390): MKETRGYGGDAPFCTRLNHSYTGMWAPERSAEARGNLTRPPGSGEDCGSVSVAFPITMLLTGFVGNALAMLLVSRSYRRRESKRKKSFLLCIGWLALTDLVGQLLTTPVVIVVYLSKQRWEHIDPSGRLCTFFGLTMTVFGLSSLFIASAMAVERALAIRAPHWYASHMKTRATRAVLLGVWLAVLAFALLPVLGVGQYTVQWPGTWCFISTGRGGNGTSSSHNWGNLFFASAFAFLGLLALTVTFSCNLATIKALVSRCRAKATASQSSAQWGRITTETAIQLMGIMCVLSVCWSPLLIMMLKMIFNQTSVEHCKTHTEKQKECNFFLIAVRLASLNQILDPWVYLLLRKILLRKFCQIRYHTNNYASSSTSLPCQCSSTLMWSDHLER
Put plainly: Functional data, human recombinant EP3A receptor stable transfectants. It counts as cell-based. The procedure: as §1, §2, §3, §4

The next experiment deals with T4, hEP1 (Homo sapiens, UniProt P34995).
T4 construct: expressed in transfected cells
T4 sequence (P34995 1-402): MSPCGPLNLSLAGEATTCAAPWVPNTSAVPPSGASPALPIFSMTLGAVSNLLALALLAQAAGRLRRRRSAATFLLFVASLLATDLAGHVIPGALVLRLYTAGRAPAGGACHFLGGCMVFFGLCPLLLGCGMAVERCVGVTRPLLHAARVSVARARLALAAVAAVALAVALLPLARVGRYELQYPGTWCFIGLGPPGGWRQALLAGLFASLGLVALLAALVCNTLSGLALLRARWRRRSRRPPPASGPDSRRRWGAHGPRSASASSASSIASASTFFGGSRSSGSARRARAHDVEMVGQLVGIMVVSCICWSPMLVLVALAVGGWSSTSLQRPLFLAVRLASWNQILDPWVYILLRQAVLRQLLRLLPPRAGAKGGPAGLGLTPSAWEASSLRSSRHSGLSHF
Nature of the experiment: Functional data, human recombinant EP1 receptor stable transfectants. It counts as cell-based. The protocol:
as §1, §5, §6, §4

Each structure is given as a SMILES string. Where only a bound is given, the exact number is not on record here.

T1 sequence (P35408 whole entry): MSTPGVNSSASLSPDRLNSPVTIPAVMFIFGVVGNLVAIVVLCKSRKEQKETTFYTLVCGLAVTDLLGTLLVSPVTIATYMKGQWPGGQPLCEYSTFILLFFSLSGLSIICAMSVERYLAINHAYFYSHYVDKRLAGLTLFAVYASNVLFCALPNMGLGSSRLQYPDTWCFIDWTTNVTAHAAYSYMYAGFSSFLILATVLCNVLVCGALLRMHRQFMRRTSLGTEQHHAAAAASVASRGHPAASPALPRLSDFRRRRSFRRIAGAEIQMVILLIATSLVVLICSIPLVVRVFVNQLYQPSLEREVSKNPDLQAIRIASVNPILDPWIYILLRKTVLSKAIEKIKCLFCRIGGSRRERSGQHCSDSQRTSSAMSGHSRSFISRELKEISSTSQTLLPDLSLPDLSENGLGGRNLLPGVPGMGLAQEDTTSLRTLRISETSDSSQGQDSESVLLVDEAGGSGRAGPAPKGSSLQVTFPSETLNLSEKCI

Consider `CCOC(=O)CCCCCCN1C(=O)CC[C@@H]1CCC(O)Cc1cccc(Cl)c1` (stereo partly drawn) [Example 2, 7-[2S-[3R-Hydroxy-4-(chlorophenyl)-butyl]-5-oxo-pyrrolidin-1-yl]-heptanoic acid, ethyl ester], for which the IC50 on hEP4 [1] amounted to 1 µM. Further, at hEP4 [2], the EC50 worked out at 0.065 µM.

In turn, `CCOC(=O)CCCCCCN1C(=O)CC[C@@H]1/C=C/C(O)Cc1cccc(Cl)c1` (stereo partly drawn) [Example 2a, 7-[2S-[3R-Hydroxy-4-(chlorophenyl)-but-1-enyl]-5-oxo-pyrrolidin-1-yl]-heptanoic acid, ethyl ester] returned an IC50 on hEP4 [1] of 0.3 µM. Also, the EC50 on hEP4 [2] came out at 0.021 µM.

As to `O=C(O)CCCCCCN1C(=O)CC[C@@H]1/C=C/C(=O)Cc1cccc(Cl)c1` [Example 3a, 7-[2S-[4-(3-Chloro-phenyl)-3-oxo-but-1-enyl]-5-oxo-pyrrolidin-1-yl]-heptanoic acid], the EC50 on hTP was above 10 µM; at hEP3A, 0.324 µM; at hEP4 [2] it was 0.054 µM. The molecule also yielded an IC50 on hEP4 [1] of 0.3 µM. For the same molecule, the “hEP1 functional EC50” value on hEP1 is listed as “hit”.

`CCOC(=O)CCCCCCN1C(=O)CC[C@@H]1/C=C/C(=O)Cc1cccc(Cl)c1` [Example 4a, 7-[2S-[4-(3-Chloro-phenyl)-3-oxo-but-1-enyl]-5-oxo-pyrrolidin-1-yl]-heptanoic acid, ethyl ester] showed an IC50 at hEP4 [1] above 10 µM. Further, at hEP4 [2], the EC50 was above 10 µM.

As to `O=C(O)CCCCCCN1C(=O)CC[C@@H]1CCC(O)Cc1cccc(C(F)(F)F)c1` (stereo partly drawn) [Example 5, 7-[2S-[3R-Hydroxy-4-(3-trifluoromethyl-phenyl)-butyl]-5-oxo-pyrrolidin-1-yl]-heptanoic acid], at hEP4 [1], the IC50 is 0.017 µM. Also, the “hEP3A functional EC50” value at hEP3A is on record as “hit”. Besides, on hEP4 [2], the EC50 came out at 0.0004 µM.

With `O=C(O)CCCCCCN1C(=O)CC[C@@H]1/C=C/C(O)Cc1cccc(C(F)(F)F)c1` (stereo partly drawn) [Example 5a, 7-[2S-[3R-Hydroxy-4-(3-trifluoromethyl-phenyl)-but-1-enyl]-5-oxo-pyrrolidin-1-yl]-heptanoic acid], at hEP4 [1], the IC50 stood at 0.005 µM. Also, on hEP3A, the “hEP3A functional EC50” value is given as “hit”. Besides, the EC50 on hEP4 [2] stood at 0.0004 µM.

In the case of `CCOC(=O)CCCCCCN1C(=O)CC[C@@H]1CCC(O)Cc1cccc(C(F)(F)F)c1` (stereo partly drawn) [Example 6, 7-[2S-[3R-Hydroxy-4-(3-trifluoromethyl-phenyl)-butyl]-5-oxo-pyrrolidin-1-yl]-heptanoic acid, ethyl ester], the IC50 at hEP4 [1] was determined as 1.2 µM. For the same molecule, on hEP4 [2], the EC50 was found to be 0.111 µM.

With `CCOC(=O)CCCCCCN1C(=O)CC[C@@H]1CCC(=O)Cc1cccc(C(F)(F)F)c1` [Example 8, 7-[2S-[3-Oxo-4-(trifluoromethylphenyl)-butyl]-5-oxo-pyrrolidin-1-yl]-heptanoic acid, ethyl ester], the IC50 at hEP4 [1] was above 10 µM. Also, on hEP4 [2], the EC50 came to 7.16 µM.

At hEP4 [1], `CCOC(=O)CCCCCCN1C(=O)CC[C@@H]1/C=C/C(=O)Cc1cccc(C(F)(F)F)c1` [Example 8a, 7-[2S-[3-Oxo-4-(trifluoromethylphenyl)-but-1-enyl]-5-oxo-pyrrolidin-1-yl]-heptanoic acid, ethyl ester] had an IC50 above 10 µM. Besides, the EC50 on hEP3A and on hEP4 [2] was above 10 µM each time.

At hEP4 [1], `O=C(O)CCCCCCN1C(=O)CC[C@@H]1CCC(O)Cc1ccccc1` (stereo partly drawn) [Example 9, 7-[2S-[3R-Hydroxy-(4-phenyl)-butyl]-5-oxo-pyrrolidin-1-yl]-heptanoic acid] had an IC50 of 0.018 µM. In addition, the figures for the EC50 on hEP3A and on hEP4 [2] were above 10 µM and 0.0024 µM, respectively.

On to `CCOC(=O)CCCCCCN1C(=O)CC[C@@H]1CCC(O)Cc1ccccc1` (stereo partly drawn) [Example 10, 7-[2S-[3R-Hydroxy-(4-phenyl)-butyl]-5-oxo-pyrrolidin-1-yl]-heptanoic acid, ethyl ester], for which the EC50 on hEP4 [2] was 1.02 µM.

In the case of `CCOC(=O)CCCCCCN1C(=O)CC[C@@H]1/C=C/C(O)Cc1ccccc1` (stereo partly drawn) [Example 10a, 7-[2S-[3R-Hydroxy-(4-phenyl)-but-1-enyl]-5-oxo-pyrrolidin-1-yl]-heptanoic acid, ethyl ester], the IC50 at hEP4 [1] was found to be 0.6 µM. The EC50 on hEP4 [2] came out at 0.368 µM.

The molecule `CCOC(=O)CCCCCCN1C(=O)CC[C@@H]1CCC(=O)Cc1ccccc1` [Example 12, 7-[2S-[3-Oxo-4-(phenyl)-butyl]-5-oxo-pyrrolidin-1-yl]-heptanoic acid, ethyl ester] returned an IC50 on hEP4 [1] of 8.9 µM. Also, the EC50 at hEP4 [2] is above 10 µM.

As for `CCOC(=O)CCCCCCN1C(=O)CC[C@@H]1/C=C/C(=O)Cc1ccccc1` [Example 12a, 7-[2S-[3-Oxo-4-(phenyl)-but-1-enyl]-5-oxo-pyrrolidin-1-yl]-heptanoic acid, ethyl ester], the IC50 at hEP4 [1] is above 10 µM. On hEP4 [2], the EC50 was above 10 µM.

For orientation: IC50 means the concentration that inhibits the measured activity by half. Low values mean higher potency, high ones lower potency. Usually EC50 stands for the concentration needed to bring the measured effect to its halfway point.
